Literature values, collected in patent US6927291B2, “Method for the synthesis of 2′,3′-dideoxy-2′,3′-didehydronucleosides” (Pharmasset, Ltd., priority 2001, dated 2005).

Experiments:
[1] = tested on: HIV; details: result in words
[2] = tested on: AZT-resistant HIV isolates; details: in vitro; isolates from patients treated with AZT for longer than 36 weeks
[3] = tested on: HIV; details: versus all approved anti-HIV agents

| SMILES | activity against HIV [1] | inhibition of replication of AZT-resistant HIV isolates [2] | cross-resistance [3] |
| --- | --- | --- | --- |
| Nc1ccn(C2CSC(CO)O2)c(=O)n1 (racemic) [BCH-189, 2-hydroxymethyl-5-(cytosin-1-yl)-1,3-oxathiolane] | approximately the same activity against HIV as AZT | inhibit the replication of AZT-resistant HIV isolates in vitro |  |
| Nc1nc(=O)n([C@@H]2CS[C@H](CO)O2)cc1F (relative stereo) [FTC, cis-2-hydroxymethyl-5-(5-fluorocytosin-1-yl)-1,3-oxathiolane] | potent HIV activity |  |  |
| Nc1ccn([C@@H]2CS[C@H](CO)O2)c(=O)n1 [Formula 3TC] | highly potent against HIV |  |  |
| Nc1nc(=O)n(C2C=CC(CO)O2)cc1F [β-D-D4FC, β-D-2′,3′-didehydro-2′,3′-dideoxy-5-fluorocytidine] | potent anti-HIV activity in vitro |  | no cross-resistance with all approved anti-HIV agents |
